Data published in patent US20210196724A1, “BIARYL COMPOSITIONS AND METHODS FOR MODULATING A KINASE CASCADE” (Athenex, Inc., priority 2016, published 2021).

Assays:
Format in all cases: cell-based
Settings in all cases: 72 h
SW579 cells = assay: CellTiter-Glo cell viability, SW579
Experimental: (§1) The cell viability of 50 cancer cell lines was studied after treatment with Compound 121. Inhibition concentration values at 50% (IC50) were determined using CellTiter-Glo luminescent cell viability assay after incubation with different compound concentrations. GI50 values were determined according to the examples described above. Each cell line was treated with Compound 121, a standard chemotherapy drug as a reference control, and culture medium as a vehicle control.
(§2) All cells were cultured in media supplemented with 10-15% FBS at 37° C. in the presence of 5% CO2 and at 95% humidity. The culture medium was purchased from GIBCO or Sigma, USA. Cisplatin was chosen as the reference control and purchased from Hospira Australia Pty Ltd. The cell lines studied are presented in Table 5.
(§3) Cells were harvested during a logarithmic growth period and cell number count was determined using Count-star. Cell concentrations were adjusted to 4.44×10^4 cells/mL with respective culture medium. 90 μL of cell suspensions were added to two 96-well plates (plates A and B) with a final cell density of 4×10^3 cells/well.
(§4) 10 μL of culture medium was added to each well of plate A for TO reading. The plate was allowed to equilibrate at room temperature for approximately 30 min. 50 μL of CellTiter-Glo was added to each well and the contents were mixed for 5 min on an orbital shaker to induce cell lysis. The plate was allowed to incubate at room temperature for 20 min to stabilize luminescent signal.
(§5) 10 μM Compound 121 in media was serially diluted 3.16-fold to achieve 9 dose levels. Similarly, 100 μM reference control in media was serially diluted 3.16-fold to prepare reference control solutions. 10 μL drug solution and 10 μL of reference control was dispensed into each well in plate B.
(§6) Test plate B was incubated for 72 h in a humidified incubator at 37° C. in the presence of 5% CO2 and then subjected to CTG assay. The plate was allowed to equilibrate at room temperature for about 30 min. 50 μL of CellTiter-Glo was added to each well and the contents were mixed for 5 min on an orbital shaker to induce cell lysis. The plate was allowed to incubate at room temperature for 20 min to stabilize luminescent signal.
(§7) IC50 and GI50 values for each of the 50 cell lines are presented in Table 6 and were calculated based on the dose-response curves depicted in FIGS. 1-50. The dose-response curves were fitted using nonlinear regression model with a sigmoidal dose response. The formula for calculating survival rate was calculated by the formula:
(§8) Survival rate (%)=(LumTest article−LumMedium control)/(LumNone treated−LumMedium control)×100.

143B cells = assay: CellTiter-Glo cell viability, 143B
Experimental: as §1, §2, §3, §4, §5, §6, §7, §8

HCT-15 cells = assay: CellTiter-Glo cell viability, HCT-15
Experimental: as §1, §2, §3, §4, §5, §6, §7, §8

MDA-MB-453 cells = assay: CellTiter-Glo cell viability, MDA-MB-453
Experimental: as §1, §2, §3, §4, §5, §6, §7, §8

RPMI 8226 cells = assay: CellTiter-Glo cell viability, RPMI 8226
Experimental: as §1, §2, §3, §4, §5, §6, §7, §8

MDA-MB-468 cells = assay: CellTiter-Glo cell viability, MDA-MB-468
Experimental: as §1, §2, §3, §4, §5, §6, §7, §8

NCI-H1155 cells = assay: CellTiter-Glo cell viability, NCI-H1155
Experimental: as §1, §2, §3, §4, §5, §6, §7, §8

HT-1376 cells = assay: CellTiter-Glo cell viability, HT-1376
Experimental: as §1, §2, §3, §4, §5, §6, §7, §8

K-562 cells = assay: CellTiter-Glo cell viability, K-562
Experimental: as §1, §2, §3, §4, §5, §6, §7, §8

HL-60 cells = assay: CellTiter-Glo cell viability, HL-60
Experimental: as §1, §2, §3, §4, §5, §6, §7, §8

Raji cells = assay: CellTiter-Glo cell viability, Raji
Experimental: as §1, §2, §3, §4, §5, §6, §7, §8

KARPAS-299 cells = assay: CellTiter-Glo cell viability, KARPAS-299
Experimental: as §1, §2, §3, §4, §5, §6, §7, §8

PC-3 cells = assay: CellTiter-Glo cell viability, PC-3
Experimental: as §1, §2, §3, §4, §5, §6, §7, §8

MES-SA/DX5 cells = assay: CellTiter-Glo cell viability, MES-SA/DX5
Experimental: as §1, §2, §3, §4, §5, §6, §7, §8

SK-MEL-28 cells = assay: CellTiter-Glo cell viability, SK-MEL-28
Experimental: as §1, §2, §3, §4, §5, §6, §7, §8

HuT 78 cells = assay: CellTiter-Glo cell viability, HuT 78
Experimental: as §1, §2, §3, §4, §5, §6, §7, §8

SCC-4 cells = assay: CellTiter-Glo cell viability, SCC-4
Experimental: as §1, §2, §3, §4, §5, §6, §7, §8

EBC-1 cells = assay: CellTiter-Glo cell viability, EBC-1
Experimental: as §1, §2, §3, §4, §5, §6, §7, §8

A-673 cells = assay: CellTiter-Glo cell viability, A-673
Experimental: as §1, §2, §3, §4, §5, §6, §7, §8

U251 cells = assay: CellTiter-Glo cell viability, U251
Experimental: as §1, §2, §3, §4, §5, §6, §7, §8

NCI-N87 cells = assay: CellTiter-Glo cell viability, NCI-N87
Experimental: as §1, §2, §3, §4, §5, §6, §7, §8

[1] = top conc. 10 μM Compound 121, 100 μM cisplatin

## N.N.[Cl][Pt][Cl] [Cisplatin, reference compound]
SW579 cells; read-out: Absolute GI50
  GI50: 1830 nM
SW579 cells; read-out: Absolute IC50
  IC50: 2240 nM
SW579 cells; [1]
  % inhibition at top conc.: 99.88%
143B cells; read-out: Absolute GI50
  GI50: 1020 nM
143B cells; read-out: Absolute IC50
  IC50: 1080 nM
143B cells; [1]
  % inhibition at top conc.: 99.94%
HCT-15 cells; read-out: Absolute GI50
  GI50: 4270 nM
HCT-15 cells; read-out: Absolute IC50
  IC50: 4760 nM
HCT-15 cells; [1]
  % inhibition at top conc.: 98.22%
MDA-MB-453 cells; read-out: Absolute GI50
  GI50: 7050 nM
MDA-MB-453 cells; read-out: Absolute IC50
  IC50: 9510 nM
MDA-MB-453 cells; [1]
  % inhibition at top conc.: 96.82%
RPMI 8226 cells; read-out: Absolute GI50
  GI50: 2380 nM
RPMI 8226 cells; read-out: Absolute IC50
  IC50: 3620 nM
RPMI 8226 cells; [1]
  % inhibition at top conc.: 99.76%
MDA-MB-468 cells; read-out: Absolute GI50
  GI50: 650 nM
MDA-MB-468 cells; read-out: Absolute IC50
  IC50: 930 nM
MDA-MB-468 cells; [1]
  % inhibition at top conc.: 99.91%
NCI-H1155 cells; read-out: Absolute GI50
  GI50: 1520 nM
NCI-H1155 cells; read-out: Absolute IC50
  IC50: 1750 nM
NCI-H1155 cells; [1]
  % inhibition at top conc.: 90.61%
HT-1376 cells; read-out: Absolute GI50
  GI50: 2640 nM
HT-1376 cells; read-out: Absolute IC50
  IC50: 3260 nM
HT-1376 cells; [1]
  % inhibition at top conc.: 91.76%
K-562 cells; read-out: Absolute GI50
  GI50: 4210 nM
K-562 cells; read-out: Absolute IC50
  IC50: 4510 nM
K-562 cells; [1]
  % inhibition at top conc.: 97.94%
HL-60 cells; read-out: Absolute GI50
  GI50: 1340 nM
HL-60 cells; read-out: Absolute IC50
  IC50: 1460 nM
HL-60 cells; [1]
  % inhibition at top conc.: 99.99%
Raji cells; read-out: Absolute GI50
  GI50: 1740 nM
Raji cells; read-out: Absolute IC50
  IC50: 1970 nM
Raji cells; [1]
  % inhibition at top conc.: 94.98%
KARPAS-299 cells; read-out: Absolute GI50
  GI50: 1490 nM
KARPAS-299 cells; read-out: Absolute IC50
  IC50: 1630 nM
KARPAS-299 cells; [1]
  % inhibition at top conc.: 99.99%
PC-3 cells; read-out: Absolute GI50
  GI50: 4680 nM
PC-3 cells; read-out: Absolute IC50
  IC50: 5940 nM
PC-3 cells; [1]
  % inhibition at top conc.: 83.88%
MES-SA/DX5 cells; read-out: Absolute GI50
  GI50: 1960 nM
MES-SA/DX5 cells; read-out: Absolute IC50
  IC50: 2210 nM
MES-SA/DX5 cells; [1]
  % inhibition at top conc.: 99.94%
SK-MEL-28 cells; read-out: Absolute GI50
  GI50: 7090 nM
SK-MEL-28 cells; read-out: Absolute IC50
  IC50: 8900 nM
SK-MEL-28 cells; [1]
  % inhibition at top conc.: 99.29%
HuT 78 cells; read-out: Absolute GI50
  GI50: 500 nM
HuT 78 cells; read-out: Absolute IC50
  IC50: 660 nM
HuT 78 cells; [1]
  % inhibition at top conc.: 98.27%
SCC-4 cells; read-out: Absolute GI50
  GI50: 3430 nM
SCC-4 cells; read-out: Absolute IC50
  IC50: 4150 nM
SCC-4 cells; [1]
  % inhibition at top conc.: 99.29%
EBC-1 cells; read-out: Absolute GI50
  GI50: 11800 nM
EBC-1 cells; read-out: Absolute IC50
  IC50: 17300 nM
EBC-1 cells; [1]
  % inhibition at top conc.: 84.49%
A-673 cells; read-out: Absolute GI50
  GI50: 400 nM
A-673 cells; read-out: Absolute IC50
  IC50: 1120 nM
A-673 cells; [1]
  % inhibition at top conc.: 99.59%
U251 cells; read-out: Absolute GI50
  GI50: 3070 nM
U251 cells; read-out: Absolute IC50
  IC50: 3980 nM
U251 cells; [1]
  % inhibition at top conc.: 87.70%
NCI-N87 cells; read-out: Absolute GI50
  GI50: 880 nM
NCI-N87 cells; read-out: Absolute IC50
  IC50: 2260 nM
NCI-N87 cells; [1]
  % inhibition at top conc.: 90.08%
